Key:
soybean [1] = test: Test C postemergence; type: in vivo, Glycine max; conditions: 10 days
In short: (§1)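 Test material, in non-phytotoxic solvent with surfactant, was sprayed on the soil directly after seeding (preemergence) or on young plants of 2–10 cm with one to two leaves (postemergence). Greenhouse, 10 days; 0–100 visual control scale.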

green foxtail [2] = test: Test C preemergence; type: in vivo, Setaria viridis; conditions: 0 to 100 scale (0 no effect, 100 complete control); for Plant response rating, Foxtail, Green: Preemergence, 500 g ai/ha, visual rating after 10 days; for Foxtail, Green plant response rating: Test C, preemergence, 125 g ai/ha
In short: as §1

pigweed, palmer [3] = test: Test C postemergence; type: in vivo, Amaranthus palmeri; conditions: 10 days
In short: as §1

soybean [4] = test: Test C preemergence; type: in vivo, Glycine max; conditions: 0 to 100 scale (0 no effect, 100 complete control); for Plant response rating, Soybean: Preemergence, 500 g ai/ha, visual rating after 10 days; for Soybean plant response rating: Test C, preemergence, 125 g ai/ha
In short: as §1

blackgrass [5] = test: Test C postemergence; type: in vivo, Alopecurus myosuroides; conditions: 10 days
In short: as §1

green foxtail [6] = test: Test C postemergence; type: in vivo, Setaria viridis; conditions: 10 days
In short: as §1

sedge, umbrella = test: Test D flooded paddy test; type: in vivo, Cyperus difformis; conditions: 250 g ai/ha, applied to paddy water, visual rating after 13 to 14 days, scale 0 to 100 (0 no effect, 100 complete control)
In short: (§2)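 Seedlings reached the 2-leaf stage, then pots were flooded to 3 cm over the soil surface. Compound was applied into the water, depth was maintained, and plants stayed in the greenhouse 13 to 14 days before visual scoring (0–100) relative to controls.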

kochia [7] = test: Test C postemergence; type: in vivo, Bassia scoparia; conditions: 10 days
In short: as §1

ducksalad = test: Test D flooded paddy test; type: in vivo, Heteranthera limosa; conditions: 250 g ai/ha, applied to paddy water, visual rating after 13 to 14 days, scale 0 to 100 (0 no effect, 100 complete control)
In short: as §2

barnyardgrass [8] = test: Test C preemergence; type: in vivo, Echinochloa crusgalli; conditions: 0 to 100 scale (0 no effect, 100 complete control); for Barnyardgrass plant response rating: 125 g ai/ha, preemergence; for Plant response rating, Barnyardgrass: Preemergence, 500 g ai/ha, visual rating after 10 days
In short: as §1

horseweed = test: Test C postemergence; type: in vivo, Erigeron canadensis; conditions: 10 days
In short: as §1

ryegrass, Italian [9] = test: Test C postemergence; type: in vivo, Lolium multiflorum; conditions: 10 days
In short: as §1

pigweed, palmer [10] = test: Test C preemergence; type: in vivo, Amaranthus palmeri; conditions: 0 to 100 scale (0 no effect, 100 complete control); for Plant response rating, Pigweed, Palmer: Preemergence, 500 g ai/ha, visual rating after 10 days; for Pigweed, Palmer plant response rating: Test C, preemergence, 125 g ai/ha
In short: as §1

oat, wild [11] = test: Test C postemergence; type: in vivo, Avena fatua; conditions: 10 days
In short: as §1

wheat [12] = test: Test C postemergence; type: in vivo, Triticum aestivum; conditions: 10 days
In short: as §1

ragweed [13] = test: Test C postemergence; type: in vivo, Ambrosia artemisiifolia; conditions: 10 days
In short: as §1

ragweed [14] = test: Test C preemergence; type: in vivo, Ambrosia artemisiifolia; conditions: 0 to 100 scale (0 no effect, 100 complete control); for Plant response rating, Ragweed: Preemergence, 500 g ai/ha, visual rating after 10 days; for Ragweed plant response rating: Test C, preemergence, 125 g ai/ha
In short: as §1

blackgrass [15] = test: Test C preemergence; type: in vivo, Alopecurus myosuroides; conditions: 0 to 100 scale (0 no effect, 100 complete control); for Plant response rating, Blackgrass: Preemergence, 500 g ai/ha, visual rating after 10 days; for Blackgrass plant response rating: Test C, preemergence, 125 g ai/ha
In short: as §1

kochia [16] = test: Test C preemergence; type: in vivo, Bassia scoparia; conditions: 0 to 100 scale (0 no effect, 100 complete control); for Plant response rating, Kochia: Preemergence, 500 g ai/ha, visual rating after 10 days; for Kochia plant response rating: Test C, preemergence, 125 g ai/ha
In short: as §1

corn [17] = test: Test C preemergence; type: in vivo, Zea mays; conditions: 0 to 100 scale (0 no effect, 100 complete control); for Plant response rating, Corn: Preemergence, 500 g ai/ha, visual rating after 10 days; for Corn plant response rating: Test C, preemergence, 125 g ai/ha
In short: as §1

galium = test: Test C postemergence; type: in vivo, Galium aparine; conditions: 10 days
In short: as §1

corn [18] = test: Test C postemergence; type: in vivo, Zea mays; conditions: 10 days
In short: as §1

oat, wild [19] = test: Test C preemergence; type: in vivo, Avena fatua; conditions: 0 to 100 scale (0 no effect, 100 complete control); for Plant response rating, Oat, Wild: Preemergence, 500 g ai/ha, visual rating after 10 days; for Oat, Wild plant response rating: Test C, preemergence, 125 g ai/ha
In short: as §1

ryegrass, Italian [20] = test: Test C preemergence; type: in vivo, Lolium multiflorum; conditions: 0 to 100 scale (0 no effect, 100 complete control); for Plant response rating, Ryegrass, Italian: Preemergence, 500 g ai/ha, visual rating after 10 days; for Ryegrass, Italian plant response rating: Test C, preemergence, 125 g ai/ha
In short: as §1

wheat [21] = test: Test C preemergence; type: in vivo, Triticum aestivum; conditions: 0 to 100 scale (0 no effect, 100 complete control); for Plant response rating, Wheat: Preemergence, 500 g ai/ha, visual rating after 10 days; for Wheat plant response rating: Test C, preemergence, 125 g ai/ha
In short: as §1

barnyardgrass [22] = test: Test D flooded paddy test; type: in vivo, Echinochloa crus-galli; conditions: 250 g ai/ha, applied to paddy water, visual rating after 13 to 14 days, scale 0 to 100 (0 no effect, 100 complete control)
In short: as §2

barnyardgrass [23] = test: Test C postemergence; type: in vivo, Echinochloa crusgalli; conditions: 10 days
In short: as §1

rice = test: Test D flooded paddy test; type: in vivo, Oryza sativa; conditions: 250 g ai/ha, applied to paddy water, visual rating after 13 to 14 days, scale 0 to 100 (0 no effect, 100 complete control)
In short: as §2

[24] = 125 g ai/ha, postemergence, 0 to 100 scale, 0 no effect, 100 complete control
[25] = Postemergence, 500 g ai/ha, visual 0 to 100 scale (0 no effect, 100 complete control)

CC(C)c1ncn(-c2cc(OC(F)F)c(OC(F)F)c(C(=O)N3C[C@H](C)Oc4c(Cl)cccc43)c2)n1 [Compound 150]
30: Plant response rating, Pigweed, Palmer (pigweed, palmer [3]; [25])
50: Plant response rating, Soybean (soybean [1]; [25])
0: Plant response rating, Foxtail, Green (green foxtail [2]) | Foxtail, Green plant response rating (green foxtail [2]) | Plant response rating, Pigweed, Palmer (pigweed, palmer [3]; [24]) | Plant response rating, Soybean (soybean [4]) | Soybean plant response rating (soybean [4]) | Plant response rating, Blackgrass (blackgrass [5]; [24]) | Plant response rating, Blackgrass (blackgrass [5]; [25]) | Plant response rating, Foxtail, Green (green foxtail [6]; [24]) | Plant response rating, Foxtail, Green (green foxtail [6]; [25]) | Plant response rating, Sedge, Umbrella (Flood) (sedge, umbrella) | Plant response rating, Kochia (kochia [7]; [24]) | Plant response rating, Ducksalad (Flood) (ducksalad) | Barnyardgrass plant response rating (barnyardgrass [8]) | Plant response rating, Barnyardgrass (barnyardgrass [8]) | Plant response rating, Horseweed (horseweed; [24]) | Plant response rating, Horseweed (horseweed; [25]) | Plant response rating, Ryegrass, Italian (ryegrass, Italian [9]; [24]) | Plant response rating, Ryegrass, Italian (ryegrass, Italian [9]; [25]) | Plant response rating, Pigweed, Palmer (pigweed, palmer [10]) | Pigweed, Palmer plant response rating (pigweed, palmer [10]) | Plant response rating, Oat, Wild (oat, wild [11]; [24]) | Plant response rating, Oat, Wild (oat, wild [11]; [25]) | Plant response rating, Wheat (wheat [12]; [24]) | Plant response rating, Wheat (wheat [12]; [25]) | Plant response rating, Ragweed (ragweed [13]; [24]) | Plant response rating, Ragweed (ragweed [13]; [25]) | Ragweed plant response rating (ragweed [14]) | Plant response rating, Blackgrass (blackgrass [15]) | Blackgrass plant response rating (blackgrass [15]) | Plant response rating, Kochia (kochia [16]) | Kochia plant response rating (kochia [16]) | Plant response rating, Corn (corn [17]) | Corn plant response rating (corn [17]) | Plant response rating, Galium (galium; [24]) | Plant response rating, Galium (galium; [25]) | Plant response rating, Corn (corn [18]; [24]) | Plant response rating, Corn (corn [18]; [25]) | Plant response rating, Oat, Wild (oat, wild [19]) | Oat, Wild plant response rating (oat, wild [19]) | Plant response rating, Ryegrass, Italian (ryegrass, Italian [20]) | Ryegrass, Italian plant response rating (ryegrass, Italian [20]) | Plant response rating, Wheat (wheat [21]) | Wheat plant response rating (wheat [21]) | Plant response rating, Barnyardgrass (Flood) (barnyardgrass [22]) | Plant response rating, Rice (Flood) (rice)
10: Plant response rating, Barnyardgrass (barnyardgrass [23]; [24]) | Plant response rating, Barnyardgrass (barnyardgrass [23]; [25])
20: Plant response rating, Soybean (soybean [1]; [24]) | Plant response rating, Kochia (kochia [7]; [25]) | Plant response rating, Ragweed (ragweed [14])

C[C@H]1CN(C(=O)c2cccc(-n3cnc(C(C)(C)O)n3)c2)c2cccc(Cl)c2O1 [Compound 169]
80: Barnyardgrass plant response rating (barnyardgrass [8]) | Plant response rating, Oat, Wild (oat, wild [11]; [24]) | Plant response rating, Corn (corn [18]; [24]) | Oat, Wild plant response rating (oat, wild [19])
6: Plant response rating, Wheat (wheat [12]; [24])
100: Plant response rating, Soybean (soybean [1]; [24]) | Plant response rating, Soybean (soybean [1]; [25]) | Plant response rating, Foxtail, Green (green foxtail [2]) | Foxtail, Green plant response rating (green foxtail [2]) | Plant response rating, Blackgrass (blackgrass [5]; [25]) | Plant response rating, Barnyardgrass (barnyardgrass [8]) | Plant response rating, Ryegrass, Italian (ryegrass, Italian [9]; [25]) | Plant response rating, Pigweed, Palmer (pigweed, palmer [10]) | Pigweed, Palmer plant response rating (pigweed, palmer [10]) | Plant response rating, Ragweed (ragweed [14]) | Plant response rating, Kochia (kochia [16]) | Kochia plant response rating (kochia [16]) | Plant response rating, Galium (galium; [24]) | Plant response rating, Galium (galium; [25]) | Plant response rating, Ryegrass, Italian (ryegrass, Italian [20])
60: Plant response rating, Ryegrass, Italian (ryegrass, Italian [9]; [24])
0: Plant response rating, Horseweed (horseweed; [24]) | Corn plant response rating (corn [17]) | Plant response rating, Barnyardgrass (Flood) (barnyardgrass [22]) | Plant response rating, Rice (Flood) (rice)
70: Plant response rating, Pigweed, Palmer (pigweed, palmer [3]; [24]) | Plant response rating, Barnyardgrass (barnyardgrass [23]; [25])
30: Plant response rating, Foxtail, Green (green foxtail [6]; [24]) | Wheat plant response rating (wheat [21])
90: Plant response rating, Pigweed, Palmer (pigweed, palmer [3]; [25]) | Plant response rating, Soybean (soybean [4]) | Soybean plant response rating (soybean [4]) | Plant response rating, Blackgrass (blackgrass [5]; [24]) | Plant response rating, Foxtail, Green (green foxtail [6]; [25]) | Plant response rating, Kochia (kochia [7]; [24]) | Plant response rating, Kochia (kochia [7]; [25]) | Plant response rating, Ducksalad (Flood) (ducksalad) | Plant response rating, Oat, Wild (oat, wild [11]; [25]) | Plant response rating, Wheat (wheat [12]; [25]) | Plant response rating, Ragweed (ragweed [13]; [25]) | Plant response rating, Blackgrass (blackgrass [15]) | Blackgrass plant response rating (blackgrass [15]) | Plant response rating, Corn (corn [18]; [25]) | Plant response rating, Oat, Wild (oat, wild [19]) | Ryegrass, Italian plant response rating (ryegrass, Italian [20]) | Plant response rating, Wheat (wheat [21])
50: Plant response rating, Ragweed (ragweed [13]; [24]) | Ragweed plant response rating (ragweed [14])
85: Plant response rating, Sedge, Umbrella (Flood) (sedge, umbrella)
20: Plant response rating, Barnyardgrass (barnyardgrass [23]; [24])
40: Plant response rating, Horseweed (horseweed; [25]) | Plant response rating, Corn (corn [17])

From patent US20260262643A1, “HERBICIDAL BENZOXAZINES” (FMC CORPORATION, priority 2022, published 2026)
